Structures are written as SMILES.

The target in one assay is factor Xa (Homo sapiens, UniProt P00742). Put plainly: inhibition of factor Xa. The format is biochemical. From the text:
The inhibition of factor Xa by the compounds according to the invention and the measurement of the anticoagulant and antithrombotic activity can be determined by conventional in-vitro or in-vivo methods. A suitable method is described, for example, by J. Hauptmann et al. in Thrombosis and Haemostasis 1990, 63, 220-223.
The inhibition of factor Xa can be measured, for example, by the method of T. Hara et al. in Thromb. Haemostas. 1994, 71, 314-319.

The target of another assay is T1, factor VIIa (Homo sapiens, UniProt P08709).
T1 sequence (P08709 213-466 limits assumed): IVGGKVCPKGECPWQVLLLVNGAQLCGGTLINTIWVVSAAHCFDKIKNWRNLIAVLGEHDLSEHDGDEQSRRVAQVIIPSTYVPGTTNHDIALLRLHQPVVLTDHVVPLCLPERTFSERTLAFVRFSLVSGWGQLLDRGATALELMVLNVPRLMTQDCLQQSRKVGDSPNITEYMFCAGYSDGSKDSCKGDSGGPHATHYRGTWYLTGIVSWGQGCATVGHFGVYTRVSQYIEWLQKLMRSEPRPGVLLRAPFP
T1 sequence (P08709 61-212 partner limits assumed): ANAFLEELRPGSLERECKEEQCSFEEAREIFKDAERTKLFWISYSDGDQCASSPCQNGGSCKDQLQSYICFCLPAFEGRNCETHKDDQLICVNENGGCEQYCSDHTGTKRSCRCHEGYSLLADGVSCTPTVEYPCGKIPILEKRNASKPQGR
Put plainly: inhibition of factor VIIa. The format is biochemical. From the text:
The inhibition of factor VIIa by the compounds according to the invention and the measurement of the anticoagulant and antithrombotic activity can be determined by conventional in-vitro or in-vivo methods. A conventional method for the measurement of the inhibition of factor VIIa is described, for example, by H. F. Ronning et al. in Thrombosis Research 1996, 84, 73-81.

Sequence of factor Xa (P00742 235-488 limits assumed): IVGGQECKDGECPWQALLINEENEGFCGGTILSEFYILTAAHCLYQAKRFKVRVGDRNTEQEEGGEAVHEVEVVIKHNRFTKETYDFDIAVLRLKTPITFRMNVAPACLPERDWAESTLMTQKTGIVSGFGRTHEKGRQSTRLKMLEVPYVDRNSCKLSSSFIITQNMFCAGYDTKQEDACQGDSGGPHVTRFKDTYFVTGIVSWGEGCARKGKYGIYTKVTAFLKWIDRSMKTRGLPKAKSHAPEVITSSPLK
Sequence of factor Xa (P00742 41-179 partner limits assumed): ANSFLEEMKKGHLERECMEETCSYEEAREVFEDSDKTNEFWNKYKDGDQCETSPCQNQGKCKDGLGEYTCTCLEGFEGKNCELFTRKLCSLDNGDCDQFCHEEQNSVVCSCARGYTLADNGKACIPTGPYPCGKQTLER

As usually defined, the IC50 is the concentration needed to halve the response being measured. The low end stands for greater potency, the high end for weaker potency. Turning to `CCCC[C@@H](NC(=O)Nc1ccccc1)C(=O)Nc1ccc(-c2ccccc2S(C)(=O)=O)cc1` [(R)-2-(3-phenylureido)-N-(2′-methylsulfonylbiphenyl-4-yl)hexanoamide], the IC50 against factor Xa amounted to 3000 nM; at factor VIIa, 170 nM.

On factor Xa, `O=C(Nc1ccc(Cl)cc1)N[C@@H](C(=O)NCC1CCN(c2ccncc2)CC1)c1ccccc1` [(R)-2-[3-(4-chlorophenyl)ureido]-N-[1-(pyridin-4-yl)piperidin-4-ylmethyl]-2-phenylacetamide] gave a half-maximal inhibitory concentration (IC50) of 55 nM.

`CC(C)C[C@@H](NC(=O)Nc1ccc(Cl)cc1)C(=O)NCC1CCN(c2ccncc2)CC1` [(R)-2-[3-(4-chlorophenyl)ureido]-N-[1-(pyridin-4-yl)piperidin-4-ylmethyl]-4-methylvaleramide]: on factor Xa, it took 410 nM to reach half-maximal inhibition (IC50). This IC50 is about 7.5-fold higher than that of the molecule before.

At factor Xa, `O=C(Nc1ccc(Cl)cc1)OC(C(=O)NCC1CCN(c2ccncc2)CC1)c1ccccc1` (centres unmarked) [2-[N-(4-chlorophenyl)-carbamoyloxy]-N-[1-(pyridin-4-yl)piperidin-4-ylmethyl]-2-phenylacetamide] registered a half-maximal inhibitory concentration (IC50) of 71 nM.

Take `CS(=O)(=O)c1ccccc1-c1ccc(NC(=O)C(Cc2cnc[nH]2)NC(=O)Nc2ccccc2)cc1` (centres unmarked) [2-(3-phenylureido)-N-(2′-methylsulfonylbiphenyl-4-yl)-3-(3H-imidazol-4-yl)propionamide]: the IC50 against factor Xa and against factor VIIa was 2000 nM each time.

`CCC[C@@H](NC(=O)Nc1ccccc1)C(=O)Nc1ccc(-c2ccccc2S(C)(=O)=O)cc1` [(R)-2-(3-phenylureido)-N-(2′-methylsulfonylbiphenyl-4-yl)pentanoamide]: the IC50 at factor Xa was 2000 nM; against factor VIIa, 930 nM.

Turning to `CCCC(NC(=O)Nc1ccc(Cl)cc1)C(=O)NCC1CCN(c2ccncc2)CC1` (centres unmarked) [2-[3-(4-chlorophenyl)ureido]-N-[1-(pyridin-4-yl)piperidin-4-ylmethyl]-valeramide], on factor Xa, 580 nM corresponded to half-maximal inhibition (IC50).

Consider `CS(=O)(=O)c1ccccc1-c1ccc(NC(=O)C(NC(=O)Nc2ccccc2)c2ccccc2)cc1` (centres unmarked) [2-(3-phenylureido)-N-(2′-methylsulfonylbiphenyl-4-yl)-2-phenyl-acetamide], for which the IC50 against factor Xa came out at 2300 nM; against factor VIIa, 2000 nM.

With `CS(=O)(=O)c1ccccc1-c1ccc(NC(=O)C(Cc2cccs2)NC(=O)Nc2ccccc2)cc1` (centres unmarked) [2-(3-phenylureido)-N-(2′-methylsulfonylbiphenyl-4-yl)-3-(thiophen-2-yl)-propionamide], the IC50 amounted to 1200 nM on factor Xa and 750 nM on factor VIIa.

`CS(=O)(=O)c1ccccc1-c1ccc(NC(=O)[C@@H](Cc2ccccc2)NC(=O)Nc2ccc(Cl)cc2)cc1` [(R)-2-[3-(4-chlorophenyl)ureido]-N-(2′-methylsulfonylbiphenyl-4-yl)-3-phenylpropionamide]: the results for the half-maximal inhibitory concentration (IC50) against factor Xa and against factor VIIa were 86 nM and 65 nM, respectively.

`CCC[C@H](NC(=O)Nc1ccccn1)C(=O)Nc1ccc(-c2ccccc2S(C)(=O)=O)cc1` [(S)-2-(3-pyridin-2-ylureido)-N-(2′-methylsulfonylbiphenyl-4-yl)-pentanoamide]: the values for the IC50 against factor Xa and at factor VIIa were 3800 nM and 2700 nM, respectively.

In the case of `CSCCC(NC(=O)Nc1ccccc1)C(=O)Nc1ccc(-c2ccccc2S(C)(=O)=O)cc1` (centres unmarked) [2-(3-phenylureido)-N-(2′-methylsulfonylbiphenyl-4-yl)-4-methylsulfanylbutyramide], the figures for the IC50 at factor Xa and against factor VIIa were 2300 nM and 1800 nM, respectively.
